# In paper PMC12293736, “Discovery of N-(6-Methoxypyridin-3-yl)quinoline-2-amine Derivatives for Imaging Aggregated α-Synuclein in Parkinson’s Disease with Positron Emission Tomography” (Cells, 2025):
# pKi: −log10 of the molar value.
# Target: recombinant α-synuclein fibrils (Homo sapiens, UniProt P37840)
# Experiment: radioactive competitive binding assay with [^3H]BF2846 (Tables 1 and 2: or [^18F]7j with LBD-amplified fibrils)
# Settings: Table 1; vs. [^3H]BF2846 or [^18F]7j as radioligand; NB = no binding affinity measurable; read-out: Ki
# Protocol: Three concentrations of the test compounds (10 nM, 100 nM, and 1 μM) were selected and individually mixed with [^3H]BF2846 (∼4 nM). Each mixture was then separately added to 50 nM of recombinant α-syn fibrils in a working buffer (50 mM Tris-HCl, 0.01% bovine serum albumin (BSA)). The mixture (150 μL) was gently mixed via agitation, covered, and then incubated at 37 °C for 1.5 h in a non-binding 96-well plate (Corning Inc., Corning, NY, USA; catalog no. 3605). The mixture was filtered through a Unifilter-96 harvesting system (PerkinElmer Inc., Waltham, MA, USA) and then washed three times with 250 μL of ice-cold buffer containing 10 mM Tris-HCl (pH 7.4), 15 mM NaCl, and 20% EtOH. Next, 50 μL of scintillation cocktail (MicroScint-20, PerkinElmer) was added to the collected filtrate and counted on a Microbeta system (PerkinElmer Inc., Waltham, MA, USA). The total binding was measured in the absence of the tested compounds, and non-specific binding was defined by the presence of 100 nM of unlabeled BF2846 in the working buffer.
# For the full curve of α-syn competition binding, [^3H]BF2846 (∼4 nM) was incubated with fixed concentrations of 50 nM α-syn fibrils and ten concentrations of the tested compounds (0.05−1000 nM). All data points were collected in three individual experiments. The equilibrium inhibition constants, Ki values, were obtained from EC50 values using the equation Ki = EC50/(1 + [radioligand]/Kd) via non-linear regression from GraphPad Prism v.9.3.1 (GraphPad Software, San Diego, CA, USA) […]
# In addition, competition assays were performed with LBD-amplified fibrils and [^18F]TZ61-44 with slight modifications. The method used to produce LBD-amplified fibrils is described by Dhavale et al., and the source of the tissue was the Banner Sun Health Research Institute Brain and Body Donation Program of Sun City, Arizona. Each test compound concentration (0.001–1 µM) was individually mixed with [^18F]TZ61-44 (2 nM), and the resulting mixture was then added to 25 nM of LBD-amplified fibrils in 30 mM of Tris-HCl buffer (pH 7.4) containing 0.1% BSA. The mix was incubated for 1 h with shaking. The samples were then transferred to Multiscreen FB filter plates (Catalog MSFBN6B50, MilliporeSigma) and washed three times with cold (4 °C) buffer. The glass fiber filters containing fibril-bound radioligands were removed and counted immediately in a PerkinElmer (1450-021) Trilux MicroBeta Liquid Scintillation counter using 150 µL of Optiphase Supermix cocktail (Perkin Elmer). All data points were obtained in triplicate. The data were analyzed using Graphpad Prism software (version 10) to the obtain EC50 and Ki values by fitting the data to a one-site competition model. The synthesis of the tested compounds is described in the Supporting Information. […]
# 6. Alpha-Synuclein Binding Affinity Studies a). Determination of α-synuclein binding activity using radioactive competitive assay [ 3H]BF2846 Three concentrations of test compounds (10nM, 100nM, and 1μM) were selected and individually mixed with [3H]BF2846 ( ∼4 nM). Each mixture was then separately added to 50 nM of recombinant α-syn fibrils in a working buffer (50 mM Tris-HCl, 0.01% bovine serum albumin (BSA)). The mixture (150 μL) was gently mixed by agitation, covered, and then incubated at 37°C for 1.5 h in a nonbinding 96 well plate (Corning, 3605). The mixture was filtered through a Unifilter – 96 harvesting system (PerkinElmer) and then washed three times with 250 μL of ice-cold buffer containing 10 mM Tris – HCl (pH7.4), 15mM NaCl, and 20% EtOH. 50μL of scintillation cocktail (MicroScint-20, PerkinElmer) was added to the collected filtrate and counted on a Microbeta system (PerkinElmer). Total binding was measured in the absence of tested compounds, and nonspecific binding was defined by the presence of 100 nM unlabeled BF2846 in the working buffer. The data analysis was carried out in the following equation and graphically presented with a heatmap. […]
row,Compound,pKi
1,COc1ccc(Nc2ccc3cccnc3c2)cn1 [Compound 3g],< 6.00
2,COc1ccc(Nc2ccc3ncccc3c2)cn1 [Compound 3d],< 6.00
3,COc1ccc(Nc2ccc3cnccc3c2)cn1 [Compound 3e],7.34
4,COc1ccc(Nc2ccc3ccncc3c2)cn1 [Compound 3f],< 6.00
5,COc1ccc(Nc2cnc3ccccc3c2)cn1 [Compound 3c],6.38
6,COc1ccc(Nc2ccc3ccccc3n2)cn1 [Compound 3a],~7.00

# Same assay, conditions: Table 2; [^3H]BF2846 or [^18F]7j indirect competitive binding assay; read-out: Ki
row,Compound,pKi
1,COc1ccc2nc(Nc3ccc(OC)nc3)ccc2c1 [Compound 7f],8.34
2,COc1ccc(Nc2ccc3cc(F)ccc3n2)cn1 [Compound 5d],7.57
3,"COc1ccc(Nc2ccc3cc(O)ccc3n2)cn1 [Compound 7e, 2-((6-Methoxypyridin-3-yl)amino)quinolin-6-ol]",7.15
4,COc1ccc(Nc2ccc3cc(OS(=O)(=O)F)ccc3n2)cn1 [Compound 7i],6.49
5,COc1ccc(Nc2cc(F)c3ccccc3n2)cn1 [Compound 5b],7.19
6,COc1ccc(Nc2ccc3cc([N+](=O)[O-])ccc3n2)cn1 [Compound 7a],7.68
7,COc1ccc(Nc2ccc3cc(N)ccc3n2)cn1 [Compound 7c],7.09
8,COc1ccc(Nc2ccc3ccc(F)cc3n2)cn1 [Compound 5e],7.28
9,COc1ccc(Nc2ccc3cccc(F)c3n2)cn1 [Compound 5f],7.39
10,COc1ccc(Nc2ccc3c(F)cccc3n2)cn1 [Compound 5c],7.48

# Second part, the compound after the results:
row,pKi,Compound
1,7.64,COc1ccc(Nc2ccc3cc(OC(F)F)ccc3n2)cn1 [Compound 7g]
2,8.19,COc1ccc(Nc2ccc3cc(OCCF)ccc3n2)cn1 [Compound 7j]
3,~7.00,COc1ccc(Nc2ccc3cc(OC(F)(F)F)ccc3n2)cn1 [Compound 7h]

# Same assay, conditions: Table 3; [^3H]BF2846 indirect competitive binding assay; read-out: Ki
row,Compound,pKi
1,COc1ccc(Nc2ccc3nc(Nc4ccc(OC)nc4)ccc3c2)cn1 [Compound 8j],< 6.00
2,COc1ccc(Nc2ccc3cc(OCCOCCOCCOCCF)ccc3n2)cn1 [Compound 7m],7.38
3,COc1ccc(Nc2ccc3cc(OC/C=C/I)ccc3n2)cn1 [Compound 8i],8.30
4,COc1ccc(COc2ccc3nc(Nc4ccc(OC)nc4)ccc3c2)cc1 [Compound 8f],7.70
5,COc1ccc(Nc2ccc3cc(OCC4CCCCC4)ccc3n2)cn1 [Compound 8b],< 6.30
6,COc1ccc(Nc2ccc3cc(OCc4ccc(F)cc4)ccc3n2)cn1 [Compound 8h],7.18
7,COc1cccc(COc2ccc3nc(Nc4ccc(OC)nc4)ccc3c2)c1 [Compound 8g],7.44
8,COc1ccc2nc(Nc3ccc(SC)nc3)ccc2c1 [Compound 7r],6.71
9,COc1ccc(Nc2ccc3cc(OCc4cccnc4)ccc3n2)cn1 [Compound 8e],7.62
10,COc1ccc(Nc2ccc3cc(OCc4ccccc4)ccc3n2)cn1 [Compound 8c],7.32
11,COc1ccc(Nc2ccc3cc(OCC4COC4)ccc3n2)cn1 [Compound 8a],< 6.30

# More lines, now with the values ahead:
row,pKi,Compound
1,7.35,COc1ccc(Nc2ccc3cc(OCC(F)(F)F)ccc3n2)cn1 [Compound 7u]
2,6.74,COc1ccc2nc(Nc3ccc(C(F)(F)F)nc3)ccc2c1 [Compound 7o]
3,7.30,COc1ccc(Nc2ccc3cc(OCCOCCF)ccc3n2)cn1 [Compound 7k]
4,7.31,COc1ccc(Nc2ccc3cc(OCCOCCOCCF)ccc3n2)cn1 [Compound 7l]
5,6.40,COc1ccc2nc(Nc3ccc(F)nc3)ccc2c1 [Compound 7n]
6,7.58,Cc1ccc(Nc2ccc3cc(OCCF)ccc3n2)cn1 [Compound 7s]
7,8.00,COc1ccc2nc(Nc3ccc(OC(F)(F)F)nc3)ccc2c1 [Compound 7q]
8,7.09,FCCOc1ccc2nc(Nc3ccc(C(F)(F)F)nc3)ccc2c1 [Compound 7p]
9,< 6.30,FCCOc1ccc2nc(Nc3cccnc3)ccc2c1 [Compound 7t]

# Same assay, conditions: [^3H]BF2846 competitive assay; read-out: Ki value for α-synuclein fibrils
row,Compound,pKi
1,COc1ccc(Nc2ccc3cc(OC(F)(F)F)ccc3n2)cn1 [Compound 7h],7.00
2,COc1ccc(Nc2ccc3ccccc3n2)cn1 [Compound 3a],7.00
